According to patent US11845714B2, “Process for producing taurine” (Vitaworks IP, LLC, priority 2014, dated 2023):

Details: 25% aqueous ammonia at room temperature

NCCS(=O)(=O)O [Taurine, 2-aminoethanesulfonic acid]
solubility in 25% aqueous ammonia: 36 g in 100 g
